Experimental data published in patent US20250066344A1 (BRISTOL-MYERS SQUIBB COMPANY, priority 2021, published 2025).

What follows are compounds tested against T1, human RXFP1 (Homo sapiens, UniProt Q9HBX9) (assay: RXFP1 cyclic adenosine monophosphate (cAMP) assay, hRXFP1 HEK293). Conditions: HEK293 cells stably expressing human RXFP1; 30 min at room temperature; HTRF cAMP.
T1 construct: expressed in transfected cells
T1 sequence (Q9HBX9 1-757): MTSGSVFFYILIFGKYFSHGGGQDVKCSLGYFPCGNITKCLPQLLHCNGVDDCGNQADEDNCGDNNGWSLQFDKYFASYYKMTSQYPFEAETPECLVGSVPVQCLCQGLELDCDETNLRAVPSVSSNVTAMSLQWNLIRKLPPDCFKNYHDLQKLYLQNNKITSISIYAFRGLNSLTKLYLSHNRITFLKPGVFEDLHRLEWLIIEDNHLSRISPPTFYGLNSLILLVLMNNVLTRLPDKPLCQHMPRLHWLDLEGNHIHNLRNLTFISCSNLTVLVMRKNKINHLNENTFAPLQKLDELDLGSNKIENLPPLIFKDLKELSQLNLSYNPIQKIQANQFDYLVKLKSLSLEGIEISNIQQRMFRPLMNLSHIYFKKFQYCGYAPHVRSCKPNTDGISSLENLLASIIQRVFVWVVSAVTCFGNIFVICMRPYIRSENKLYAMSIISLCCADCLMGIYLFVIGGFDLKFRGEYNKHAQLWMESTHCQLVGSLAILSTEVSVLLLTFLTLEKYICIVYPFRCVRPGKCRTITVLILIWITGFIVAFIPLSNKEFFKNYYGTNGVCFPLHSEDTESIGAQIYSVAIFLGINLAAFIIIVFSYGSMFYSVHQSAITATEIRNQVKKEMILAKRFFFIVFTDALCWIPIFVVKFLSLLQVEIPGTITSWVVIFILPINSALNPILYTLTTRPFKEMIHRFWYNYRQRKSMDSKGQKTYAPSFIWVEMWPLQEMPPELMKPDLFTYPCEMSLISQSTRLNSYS
Assay type: cell-based
Experimental: RXFP1 Cyclic Adenosine Monophosphate (cAMP) Assays. Human embryonic kidney cells 293 (HEK293) cells and HEK293 cells stably expressing human RXFP1, were cultured in MEM medium supplemented with 10% qualified FBS, and 300 μg/ml hygromycin (Life Technologies). Cells were dissociated and suspended in assay buffer. The assay buffer was HBSS buffer (with calcium and magnesium) containing 20 mM HEPES, 0.05% BSA, and 0.5 mM IBMX. Cells (3000 cells per well, except 1500 cell per well for HEK293 cells stably expressing human RXFP1) were added to 384-well Proxiplates (Perkin-Elmer). Cells were immediately treated with test compounds in DMSO (2% final) at final concentrations in the range of 0.010 nM to 50 μM. Cells were incubated for 30 min at room temperature. The level of intracellular cAMP was determined using the HTRF HiRange cAMP assay reagent kit (Cisbio) according to manufacturer's instructions. Solutions of cryptate conjugated anti-cAMP and d2 fluorophore-labelled cAMP were made in a supplied lysis buffer separately. Upon completion of the reaction, the cells were lysed with equal volume of the d2-cAMP solution and anti-cAMP solution. After a 1 h room temperature incubation, time-resolved fluorescence intensity was measured using the Envision (Perkin-Elmer) at 400 nm excitation and dual emission at 590 nm and 665 nm. A calibration curve was constructed with an external cAMP standard at concentrations ranging from 2.7 μM to 0.1 μM by plotting the fluorescent intensity ratio from 665 nm emission to the intensity from the 590 nm emission against cAMP concentrations. The potency and activity of a compound to […] cAMP production was then determined by fitting to a 4-parametric logistic equation from a plot of cAMP level versus compound concentrations.
The examples disclosed below were tested in the human RXFP1 (hRXFP) HEK293 cAMP assay described above and found to have agonist activity. Tables 1-3, lists EC50 values in the hRXFP1 HEK293 cAMP assay measured for the examples.
Table A lists EC50 values in the hRXFP1 HEK293 cAMP assay measured for the examples.

| SMILES | EC50 |
| --- | --- |
| COc1ccc(N2CC(CO)CC2=O)cc1C(=O)Nc1cc2nc(C)sc2cc1C(=O)Nc1ccc(F)c(C(F)(F)F)c1 (stereo not shown) [Example 13, N-(4-fluoro-3-(trifluorometh-yl)phenyl)-5-(5-(4-(hy-droxymethyl)-2-oxopyrroli-din-1-yl)-2-methoxybenz-amido)-2-methylbenzo [d]thiazole-6-carboxamide] | 540 nM |
| COc1ccc(S(=O)(=O)N2CCOC[C@@H]2CO)cc1C(=O)Nc1cc2nc(C)sc2cc1C(=O)Nc1ccc(F)c(C(F)(F)F)c1 [Example 14, (S)-N-(4-fluoro-3-(tri-fluoromethyl)-phenyl)-5-(5-((3-(hydroxy-methyl)morph-olino)sulfon-yl)-2-methoxy-benzamido)-2-methylbenzo [d]thiazole-6-carboxamide] | 1400 nM |
| COc1ccc(C2=NOC3C4CC(C(=O)N4)C23)cc1C(=O)Nc1cc2nc(C)sc2cc1C(=O)Nc1ccc(F)c(C(F)(F)F)c1 (stereo not shown) [Example 15, N-(4-fluoro-3-(trifluoro-methyl)phen-yl)-5-(2-meth-oxy-5-(5-oxo-3a,4,5,6,7,7a-hexahydro-4,7-methano-isoxazolo[5,4-c]pyridin-3-yl)benzami-do)-2-methyl-benzo[d]thi-azole-6-car-boxamide] | 180 nM |
| COc1ccc(-c2cc([C@H](OC(=O)NC3CCC3)C(F)(F)F)ccc2F)cc1C(=O)Nc1cc2sc(C)nc2cc1C(=O)Nc1ccc(F)c(C(F)(F)F)c1 [Example 16, (S)-2,2,2-trifluoro-1-(6-fluoro-3′-((5-((4-fluoro-3-(trifluorometh-yl)phenyl)car-bamoyl)-2-methylbenzo [d]thiazol-6-yl)carbamoyl)-4′-methoxy-[1,1′-biphen-yl]-3-ylethylcyclobutylcar-bamate] | 46 nM |
| COc1ccc(C2=NOC3CC(CO)CC23)cc1C(=O)Nc1cc2nc(C)sc2cc1C(=O)NC1CCCC1 (stereo not shown) [Example 19, N-cyclopent-yl-5-(5-(5-(hydroxymeth-yl)-3a,5,6,6a-tetrahydro-4H-cyclopenta[d]isoxazol-3-yl)-2-methoxy-benzamido)-2-methylbenzo [d]thiazole-6-carboxamide] | 1000 nM |
| COc1ccc(N2CC(CN)CC2=O)cc1C(=O)Nc1cc2nc(C)sc2cc1C(=O)Nc1ccc(F)c(C(F)(F)F)c1 (stereo not shown) [Example 21, 5-(5-(4-(ami-nomethyl)-2-oxopyrrolidin-1-yl)-2-meth-oxybenzami-do)-N-(4-fluoro-3-(tri-fluoromethyl)-phenyl)-2-methylbenzo [d]thiazole-6-carboxamide] | 4100 nM |
| COc1ccc(C2=NOC3COCC23)cc1C(=O)Nc1cc2nc(C)sc2cc1C(=O)NC1CCCC1 (stereo not shown) [Example 29, N-cyclopentyl-5-(2-methoxy-5-(3a,4,6,6a-tetrahydrofuro [3,4-d]isox-azol-3-yl)-benzamido)-2-methylbenzo [d]thiazole-6-carboxamide] | 2700 nM |
| COc1ccc(-c2cc(C(=O)O)ccc2F)cc1C(=O)Nc1cc2c(C)noc2cc1C(=O)Nc1ccc(F)c(C(F)(F)F)c1 [Example 31, 6-fluoro-3′-((6-((4-fluoro-3-(trifluoromethyl)phenyl)carbamoyl)-3-methylbenzo[d]isoxazol-5-yl)carbamoyl)-4′-methoxy-[1,1′-biphenyl]-3-carboxylic acid] | 116 nM |
| COc1ccc(-c2cc([C@H](OC(=O)NC3CCC3)C(F)(F)F)ccc2F)cc1C(=O)Nc1cc2c(C)noc2cc1C(=O)Nc1ccc(F)c(C(F)(F)F)c1 [Example 32, (S)-2,2,2-trifluoro-1-(6-fluoro-3′-((6-((4-fluoro-3-(trifluoromethyl)phenyl)carbamoyl)-3-methylbenzo[d]isoxazol-5-yl)carbamoy])-4-methoxy-[1,1′-biphenyl]-3-yl)ethyl cyclobutylcarbamate] | 18 nM |
| COc1ccc(C#CC(C)(C)O)cc1C(=O)Nc1cc2c(C)noc2cc1C(=O)Nc1ccc(F)c(C(F)(F)F)c1 [Example 34, N-(4-fluoro-3-(trifluoromethyl)phenyl)-5-(5-(3-hydroxy-3-methylbut-1-yn-1-yl)-2-methoxybenzamido)-methylbenzo[d]isoxazole-6-carboxamide] | 1340 nM |
| COc1ccc(C(=O)N2CCC3(CC2)COC3)cc1C(=O)Nc1cc2c(cc1C(=O)Nc1ccc(F)c(C(F)(F)F)c1)OC(F)(F)O2 [Example 42, 2,2-difluoro-N-(4-fluoro-3-(trifluoromethyl)phenyl)-6-(2-methoxy-5-(2-oxa-7-azaspiro[3.5]nonane-7-carbonyl)benzamido) benzo[d][1,3]dioxole-5-carboxamide] | 1200 nM |
| COc1ccc(C2=NOC3CN(C(=O)CO)CC23)cc1C(=O)Nc1cc2c(cc1C(=O)Nc1ccc(F)c(C(F)(F)F)c1)OC(F)(F)O2 (stereo not shown) [Example 44, 2,2-difluoro-N-(4-fluoro-3-(trifluoromethyl)phenyl)-6-(5-(5-(2-hydroxyacetyl)-3a,5,6,6a-tetrahydro-4H-pyrrolo[3,4-d]isoxazol-3-yl)-2-methoxybenzamido)benzo[d][1,3]dioxole-5-carboxamide] | 16 nM |

The next lines start with the values.

| EC50 | SMILES |
| --- | --- |
| 6 nM | COc1ccc(C(=O)NCC2(S(C)(=O)=O)CC2)cc1C(=O)Nc1cc2c(cc1C(=O)Nc1ccc(F)c(C(F)(F)F)c1)OC(F)(F)O2 [Example 35, N3-(2,2-difluoro-6-((4-fluoro-3-(trifluoromethyl)phenyl)carbamoyl)benzo[d][1,3]dioxol-5-yl)-4-methoxy-N1-((1-(methylsulfonyl)cyclopropyl)methyl)isophthalamide] |
| 14 nM | COc1cc(F)c(C(=O)NCC2(S(C)(=O)=O)CC2)cc1C(=O)Nc1cc2c(cc1C(=O)Nc1ccc(F)c(C(F)(F)F)c1)OC(F)(F)O2 [Example 36, N1-(2,2-difluoro-6-((4-fluoro-3-(trifluoromethyl)phenyl)carbamoyl)benzo[d] [1,3]dioxol-5-yl)-4-fluoro-6-methoxy-N3-((1-(methylsulfonyl)cyclopropyl)methyl)iso-phthalamide] |
| 56 nM | COc1ccc(C(=O)N2CCCC(CO)C2)cc1C(=O)Nc1cc2c(cc1C(=O)Nc1ccc(F)c(C(F)(F)F)c1)OC(F)(F)O2 (stereo not shown) [Example 37, 2,2-difluoro-N-(4-fluoro-3-(trifluoromethyl)phenyl)-6-(5-(3-(hydroxymethyl)piperidine-1-carbonyl)-2-methoxybenzamido) benzo[d][1,3]dioxole-5-carboxamide] |
| 84 nM | COc1ccc(C(=O)N2CC(C(C)(C)O)C2)cc1C(=O)Nc1cc2c(cc1C(=O)Nc1ccc(F)c(C(F)(F)F)c1)OC(F)(F)O2 [Example 38, 2,2-difluoro-N-(4-fluoro-3-(trifluoromethyl)phenyl)-6-(5-(3-(2-hydroxypropan-2-yl)azetidine-1-carbonyl)-2-methoxybenzamido) benzo[d][1,3]dioxole-5-carboxamide] |
| 90 nM | COc1ccc(C(=O)N2CC(C)(O)C2)cc1C(=O)Nc1cc2c(cc1C(=O)Nc1ccc(F)c(C(F)(F)F)c1)OC(F)(F)O2 [Example 39, 2,2-difluoro-N-(4-fluoro-3-(trifluoromethyl)phenyl)-6-(5-(3-hydroxy-3-methylazetidine-1-carbonyl)-2-methoxybenzamido) benzo[d][1,3]dioxole-5-carboxamide] |
| 196 nM | COc1ccc(C(=O)N2CC[C@@H](O)C2)cc1C(=O)Nc1cc2c(cc1C(=O)Nc1ccc(F)c(C(F)(F)F)c1)OC(F)(F)O2 [Example 40, (R)-2,2-difluoro-N-(4-fluoro-3-(trifluoromethyl)phenyl)-6-(5-(3-hydroxypyrrolidine-1-carbonyl)-2-methoxybenzamido) benzo[d][1,3]dioxole-5-carboxamide] |
| 562 nM | COc1ccc(C(=O)N(C)CCS(C)(=O)=O)cc1C(=O)Nc1cc2c(cc1C(=O)Nc1ccc(F)c(C(F)(F)F)c1)OC(F)(F)O2 [Example 41] |
